Here are results for five compounds from patent US20120128667A1 (ONCOZYME PHARMA INC., priority 2009, published 2012).

Each structure is given as a SMILES string. Several values for one entry are separate records, joined by “and”; a condition that tells them apart may be missing. Equal values may be shown once. Entries after “also recorded” stand apart in the source; their conditions may differ. Read-outs that look alike come from different tables or passages of the source.

The conditions of series [1]: injected slowly into patients; cited from earlier work.
Series [2] concerns MCF-7 (breast cancer (adenocarcinoma, pleural effusion)). Briefly: cells. The note with it: for Percentage of cells killed: MCF7; for CC50: Homo sapiens. The method, then: (§1) Cell Survival-MTT assay: The MTT (3-[4,5-Dimethylthiazol-2-yl]-2,5 diphenyl tertrazolim bromide) method of determining cell growth/cytotoxicity was used to determine cell survival. MTT is a tetrazolium salt that binds to b mitochondrial dehydrogenases of living cells. Binding converts yellow, water soluble MTT to an insoluble, purple formazan crystal. The crystals are solubilized with a 50% N,N-dimethylformamide (vol/vol), 20% SDS (wt/vol) solution (pH 4.7), and absorbance is determined at a wavelength of 570 nm. Unbound MTT is not detectable at this wavelength. The amount of bound MTT measured in the assay is proportional to the number of live cells present. (Niks and Otto 1990: “Towards an optimized MTT assay,” J. Immunol. Methods. 130, 149-151, Hussain et al. 1993; “A new approach for measurement of cytotoxicity using colorimetric assay,” J. Immunol. Methods. 160, 89-96).
(§2) Cells were harvested from cell cultures using the standard protocol (Trypsin/EDTA). The cells (1000 to 5000 cells in 50 μl of solution depending on cell type used) were then plated and incubated overnight at 37° C. before the addition of the agent or combination of agents.) After 2 days of incubation at 37° C., 10 μl of a 5 mg/ml solution of MTT was then added to all the wells and to a media control well. The plates were further incubated for 4 hours. A 100 μl of MTT solubilization buffer was added and the plates were incubated overnight at 37° C. The plates were then read on the ELISA plate reader with absorbance at 570 nm and a reference at 630 nm.
(§3) The effects of combinations were tested on three representative cancer cell lines: H661 (lung cancer (carcinoma)), MCF-7 (breast cancer (adenocarcinoma, pleural effusion)), and HT29 (colon cancer (adenocarcinoma, primary tumor)). Initial assays were carried out to determine the concentrations at which taxol, oxaliplatin, gemcitabine, or CPT 11 (also known as irinotecan) killed approximately 10% of the cells under investigation.

In series [3] the test system is HT29 (colon cancer (adenocarcinoma, primary tumor)). Nature of the series: cells. The note with it: for Percentage of cells killed: HT29; for CC50: Homo sapiens. How it is done: as §1, §2, §3
Series [4] relates to H661 (lung cancer (carcinoma)). Briefly: cells. Conditions: for Percentage of cells killed: H661; for CC50: Homo sapiens. How it is done: as §1, §2, §3
The test system of the next series is metastatic colon cancer. Nature of the series: Phase I/IIa clinical trial colon cancer (Example 3). In kind it is in vivo, human. The note with it: interim results; I.V. pentamidine Day -2 and Day -1 before chemotherapy cycle. The text has this: (FOLFOX regimens contain oxaliplatin, FOLFIRI regimens contain CPT 11 also known as Irinotecan; and IROX regimens contain Irinotecan and Oxaliplatin). Patients may also receive bevacizumab (Avastin) as part of chemotherapy or cetuximab (Erbitux) or panitumumab (Vectibix). Twenty-two patients are enrolled to date.
A further dose is being given on Day −1.
Both dose escalation and treatment with pentamidine alone are at the discretion of the treating physician.
Almost all patients will have previously failed on their current treatment or a combination thereof.

For series [5] the following is noted: repeated dosing; cited from earlier work.
For series [6], the system named is BxPC3 human pancreas xenograft. The note with it: IP bi-weekly; Pentamidine 45 mg/kg, Gemcitabine 150 mg/kg.
Protocol: BxPC3 cells were transplanted subcutaneously into the flank of each animal as a suspension of tumor cells (5×10^6 cells in 0.1 mL in PBS) on Jan. […] Transplantation was performed under a laminar airflow hood. […] Animals were labeled using the “ear punching” method so that for each group, all 10 animals could be distinguished. Each group of 10 mice was housed in 2 separate cages of 5 mice each; animal numbers 1 to 5 were housed in Cage A and animal numbers 6 to 10 were housed in Cage B.
Prior to every dosing injection, each animal was weighed and received their respective formulations. […] Mice in group 3 were treated intraperitoneally, bi-weekly (Tuesday-Friday) at 150 mg/kg with Gemcitabine for eleven weeks. […] The dose volume was 30 mL/kg for mice treated intraperitoneally.
At termination, when the tumor volume of one of the mice in the group reached 1500 mm^3, the whole group was sacrificed, and animals were anaesthetized using isoflurane and sacrificed by cervical dislocation.
For series [7], the system named is metastatic colorectal cancer (mCRC). Nature of the series: Phase I/II trial of pentamidine with chemotherapy in previously treated mCRC (Example 5). In kind it is in vivo, human.
Setting [8] is: 13 evaluable pts, first 2 cycles.
Setting [9] is: 13 evaluable pts, pentamidine before CTX.
[10] abbreviates: per patient, NCI CTCAEv3, pentamidine + CTX.
[11] abbreviates: preliminary analysis, pentamidine + CTX.

For the compound `N.N.[Cl][Pt][Cl]` [Cis-platinum], the urinary excretion in series [1] is at most 75%.

On to `CCc1c2c(nc3ccc(OC(=O)N4CCC(N5CCCCC5)CC4)cc13)-c1cc3c(c(=O)n1C2)COC(=O)[C@]3(O)CC` [CPT-11, camptothecin-11], for which the “Percentage of cells killed” value in series [2] (CPT-11 3.2 μM alone) is reported as 30%; in series [3] (CPT-11 3.2 μM alone), 6%; in series [4] (CPT-11 3.2 μM alone), 14%.

With `O=C1[O][Pt]2([NH][C@@H]3CCCC[C@H]3[NH]2)[O]C1=O` [Oxaliplatin, oxaliplatin], the “Percentage of cells killed” value was found to be 8% in series [2] (Oxaliplatin 0.25 μM alone), 10% in series [3] (Oxaliplatin 0.25 μM alone) and 14% in series [4] (Oxaliplatin 0.25 μM alone).

Take `N=C(N)c1ccc(OCCCCCOc2ccc(C(=N)N)cc2)cc1` [Pentamidine]: the CC50 in series [2] (MCF7, 48 h, read-out: LC50 of Pentamidine) stood at 150 µM. Also, the CC50 in series [2] (MCF7, read-out: LC50 of Pentamidine With CPT11 (0.25 μM)) worked out at 26 µM. The CC50 in series [2] (MCF7, read-out: LC50 of Pentamidine With Gemcitabine (0.26 μM)) stood at 66 µM. Moreover, the CC50 in series [2] (MCF7, read-out: LC50 of Pentamidine With Oxaliplatin (0.25 μM)) came out at 9 µM. Further, the CC50 in series [2] (MCF7, read-out: LC50 of Pentamidine with Taxol (2 μM)) is 60 µM. For the same compound, in series [2] (Pentamidine 0.15 mM alone), the “Percentage of cells killed” value is reported as 50%. Besides, in series [3] (Pentamidine 0.15 mM alone), the “Percentage of cells killed” value was 13%. For the same compound, the CC50 in series [3] (HT-29, 48 h, read-out: LC50 of Pentamidine) turned out to be 270 µM. Moreover, in series [3] (HT-29, read-out: LC50 of Pentamidine With CPT11 (0.25 μM)), the CC50 was found to be 12 µM. Besides, the CC50 in series [3] (HT-29, read-out: LC50 of Pentamidine With Gemcitabine (0.26 μM)) was determined as 30 µM. Besides, the CC50 in series [3] (HT-29, read-out: LC50 of Pentamidine With Oxaliplatin (0.25 μM)) worked out at 9 µM. For the same compound, the CC50 in series [3] (HT-29, read-out: LC50 of Pentamidine with Taxol (2 μM)) was determined as 130 µM. Further, in series [4] (Pentamidine 0.15 mM alone), the “Percentage of cells killed” value amounted to 50%. In addition, the CC50 in series [4] (NCI-H661, 48 h, read-out: LC50 of Pentamidine) was determined as 150 µM. Besides, the CC50 in series [4] (NCI-H661, read-out: LC50 of Pentamidine With CPT11 (0.25 μM)) was 3 µM. The CC50 in series [4] (NCI-H661, read-out: LC50 of Pentamidine With Gemcitabine (0.26 μM)) was 27 µM. Moreover, the CC50 in series [4] (NCI-H661, read-out: LC50 of Pentamidine With Oxaliplatin (0.25 μM)) worked out at 3 µM. The CC50 in series [4] (NCI-H661, read-out: LC50 of Pentamidine with Taxol (2 μM)) stood at 7 µM. In addition, in the series on metastatic colon cancer, the “overall survival compared with best current therapy” value was “significantly enhances overall survival”. Besides, in series [5], the “time after final dose at which pentamidine was detected in tissue” value is 25 days. In addition, the “effect in the treatment of pancreatic cancer (tumor growth, FIG. 3)” value in series [6] is “beneficial effect”. In addition, in series [7] (setting [8]), the “DLT anorexia, share of pts” value was 8% and the “DLT hyperglycaemia, share of pts” value is given as 8%. Further, in series [7] (setting [9]), the “Grade 3/4 AEs attributed to pentamidine: hyperglycaemia” value was determined as 23% and the “Grade 3/4 AEs attributed to pentamidine: hyperlipasemia” value turned out to be 15%. For the same compound, in series [7] (Pentamidine & CTX), the “activity in mCRC that has progressed on standard lines of treatment (in words)” value is “disease stabilizing activity”. In series [7] (initial 17 pts), the “Reason for exiting the trial: Fatigue” value is on record as 12%; the “Reason for exiting the trial: Fatigue, number of pts” value is recorded as 2; the “Reason for exiting the trial: PD” value is on record as 35%; the “Reason for exiting the trial: PD, number of pts” value is recorded as 6. Besides, in series [7] (initial 17 pts), the “Reason for exiting the trial: Toxicity attributed to pentamidine” value amounted to 18%; the “Reason for exiting the trial: Toxicity attributed to pentamidine, number of pts” value was 3; the “Response at patient exit from trial: CR” value came out at 0%; the “Response at patient exit from trial: CR, number of pts” value was 0. Moreover, in series [7] (initial 17 pts), the “Response at patient exit from trial: PD” value was determined as 47%; the “Response at patient exit from trial: PD, number of pts” value was determined as 8; the “Response at patient exit from trial: PR” value is 0%; the “Response at patient exit from trial: PR, number of pts” value came to 0. For the same compound, in series [7] (initial 17 pts), the “Response at patient exit from trial: SD” value was 35% and the “Response at patient exit from trial: SD, number of pts” value worked out at 6. For the same compound, in series [7] (initial 17 pts, RECIST), the “Best response during treatment: CR” value came to 0%; the “Best response during treatment: CR, number of pts” value was 0; the “Best response during treatment: PD” value is reported as 24%; the “Best response during treatment: PD, number of pts” value is on record as 4. For the same compound, in series [7] (initial 17 pts, RECIST), the “Best response during treatment: PR” value was determined as 6%; the “Best response during treatment: PR, number of pts” value is on record as 1; the “Best response during treatment: SD” value turned out to be 59%; the “Best response during treatment: SD, number of pts” value came out at 10. Besides, in series [7] (per patient), the “Attribution to Pentamidine: Anorexia” value is reported as “possibly”; the “Attribution to Pentamidine: Diarrhea” value is “No (2×) and possibly”; the “Attribution to Pentamidine: Elevated Lipase” value is given as “posssibly; also recorded: definitely”; the “Attribution to Pentamidine: Fainting/syncope” value was “No”. In addition, in series [7] (per patient), the “Attribution to Pentamidine: General deterioration” value is on record as “No”, the “Attribution to Pentamidine: Hand-foot reaction” value was “No”, the “Attribution to Pentamidine: Neutropenia” value was “possibly” and the “Attribution to Pentamidine: Urinary tract infection” value is reported as “No”. For the same compound, in series [7] (setting [10]), the “AE Grade: Anorexia” value worked out at 3, the “AE Grade: Diarrhea” value is listed as 3, the “AE Grade: Elevated Lipase” value is on record as 3 and the “AE Grade: Fainting/syncope” value was 3. In addition, in series [7] (setting [10]), the “AE Grade: General deterioration” value came to 4, the “AE Grade: Hand-foot reaction” value was determined as 3, the “AE Grade: Neutropenia” value is on record as 3 and the “AE Grade: Urinary tract infection” value was 3. The “toxicity of pentamidine with CTX (in words)” value in series [7] (preliminary analysis) is “consistent with known side effects of pentamidine; also recorded: manageable”. Also, in series [7] (setting [11]), the “Median OS time” value is reported as “has not yet been reached” and the “median PFS time” value was determined as 4.4 months.

For the compound `Nc1ccn([C@@H]2O[C@H](CO)[C@@H](O)C2(F)F)c(=O)n1` [Gemcitabine, gemcitabine], the figures for the “Percentage of cells killed” value in series [2] (Gemcitabine 0.26 μM alone), in series [3] (Gemcitabine 0.26 μM alone) and in series [4] (Gemcitabine 0.26 μM alone) were 23%, 23% and 25%, respectively.
